Series [1] relates to HssRS. In words: microbe, parasite or virus in culture. In kind it is cell-based, S. aureus. The note with it: for HssRS activation (in words): summary statements, concentration not fixed; for Efficacy: percent activation of HssRS compared to 1 at 50 μM, error one standard deviation; for HssRS activation in single point screen: 50 μM, fraction of activation relative to 1, cut-off 0.05, in words; for pEC50 / EC50: Staphylococcus aureus, 6 h; for EC50: read-out: pEC50 (converted); for drop in efficacy: compared to 1. Here is the method: Previously reported strains were used.^11 Cultures grown overnight in 5 ml TSB with 10 μg mL^−1 chloramphenicol for 15-18 h were subcultured 1:100 into 0.5 mL TSB with 10 μg mL^−1 chloramphenicol containing compound and incubated at 37° C., 180 rpm for 6 h. Cells were washed and lysed as previously described. 200 μL of a 200 μM catechol solution in 100 mM potassium phosphate (pH 8.0) was added to 20 μL of lysate and the oxidation of catechol was followed by monitoring absorbance at 375 nm for 10 min. Samples were normalized to protein concentration as determined by BCA assay (Pierce).
The above XylE procedure was followed using different concentrations of compound. The data were then entered into Graphpad Prism 6 and fit to a curve to determine EC50 values.
HssRS activation. The library was screened for activation of the heme stress response as an indicator for activation of heme biosynthesis in S. aureus. We began by screening at the single point concentration of 50 μM using a previously described reporter assay (FIG. 4).^11 In this assay, Newman harboring a plasmid with the hrt promoter fused to xylE, a gene encoding a catechol oxidase, is treated with compound for six hours, the bacteria lysed, and the oxidation of catechol by XylE quantified by spectrophotometry. An increase in absorbance due to the oxidation of catechol indicates elevated levels of xylE transcription and hrt promoter activity. Results are expressed as the fraction of activation of HssRS by the compound compared to 1. […] With reference to FIG. 8, activation of HssRS by 3a and 3b at 50 μM. Activity is presented as the fraction of activation by the indicated derivative relative to 1 at 50 μM.

The test system of series [2] is wild type S. aureus strain Newman. The experiment in a line: Growth inhibition IC50, Newman aerobic. In kind it is cell-based. The note with it: 95% confidence interval, >60 μM considered nontoxic. As for the experimental part:
(§1) Cultures of wild type S. aureus strain Newman and ΔmenB^14 were grown in aeration tubes aerobically at 37° C. with shaking for 15-18 h. Anaerobic cultures were prepared by growing bacteria at 37° C. without shaking in an anaerobic chamber for 15-18 h. Bacteria from each condition were subcultured 1:100 into TSB containing various concentrations of compound in a 96 well plate. Aerobic wild type and ΔmenB plates are incubated aerobically at 37° C. with shaking while anaerobic plates were grown in an anaerobic chamber (Coy) at 37° C. without shaking. The absorbance at 600 nm (OD600) was determined after 9 h of growth and the fraction of growth at each compound concentration is determined by dividing the OD600 by the vehicle control (DMSO) value. IC50s were calculated using Graphpad Prism 6 and errors are reported as 95% confidence intervals.
(§2) Wild type S. aureus strain Newman was grown in an anaerobic chamber in appropriate media to ensure exclusion of terminal electron acceptors sufficient to force the bacteria to ferment. […] The arbitrary cut off point for toxicity of 60 μM was chosen as many of the compounds were not entirely soluble above this concentration.

Series [3] has the same test system. The experiment in a line: Growth inhibition IC50, Newman anaerobic (fermenting). To be noted: for pIC50: Staphylococcus aureus, NEWMAN, 9 h of growth, anaerobic chamber, 95% confidence interval, >60 μM considered nontoxic; for toxicity to fermenting / anaerobic S. aureus (in words): anaerobic Newman and ΔmenB, from IC50 data. The series is classed as cell-based. Here is the method: as §1, §2

Series [4] deals with ΔmenB. In words: Growth inhibition IC50, ΔmenB. The series is classed as cell-based, S. aureus. To be noted: Staphylococcus aureus, 9 h, read-out: IC50 ΔmenB. Here is the method:
as §1, with “intervals. […]” for “intervals.”

The subject of series [5] is S. aureus. In words: Heme adaptation assay. The series is classed as cell-based. The note with it: subculture into 20 μM heme. As for the experimental part:
Overnight cultures of S. aureus were subcultured into 500 μL TSB containing compound in 1.5 mL tubes and incubated at 37° C. with shaking for 15 h. Bacteria from the compound treated cultures were then subcultured 1:100 into 100 μL TSB containing heme and incubated at 37° C. with shaking for 8 h. Growth was monitored by reading the OD600 on a Biotek microplate reader at the defined time intervals.
Finally, the top activators were assayed for their ability to preadapt S. aureus to heme as an indication that they can activate HssRS outside the context of a reporter assay. Pretreatment of cultures with a compound that induces HrtAB expression through activation of HssRS at subtoxic concentrations allows the bacteria to survive and grow when subcultured into a toxic concentration of heme. Pretreatment with 4 μM heme, 40 μM 1, and vehicle with 40 μM of each of the top activators were compared (excluding 2d because of toxicity). All derivatives were able to preadapt S. aureus to a toxic concentration of heme (20 μM) as well as 4 μM heme and 40 μM 1 (FIG. 5). The discrepancy between XylE assay and heme adaptation activity is likely due to the length of treatment with compound (6 h vs. 15 h).

Series [6] can be described thus: Solubility limit. The series is classed as physicochemical.
Series [7] has as its system S. aureus. To be noted: earlier method, low cell density; cited from earlier work.
Series [8] concerns S. aureus infection. To be noted: previously reported; cited from earlier work.
Series [9] deals with heme biosynthetic pathway. In words: Accumulation of heme precursor molecules. In kind it is cell-based, S. aureus. The note with it: data not shown. From the text:
Because ALA is the first committed precursor molecule in the heme biosynthetic pathway, if ALA is contacted with bacteria, the bacteria will generated enhanced amounts of all of the heme precursor molecules downstream of ALA.

The mark [10] stands for this setting: Staphylococcus aureus, NEWMAN, 9 h, read-out: IC50 Newman aerobic, 9 h of growth, aerobic.

Structures are written as SMILES. pEC50, pIC50: −log10 of the molar value. Converted amounts (≈) assume the structure as drawn. “Also recorded” adds a separate entry of the source. Where two headings read alike, the source gives them in different places.

Here are results for 13 compounds from US9867879B2 (Vanderbilt University, priority 2015, dated 2018).

Turning to `COc1ccccc1-c1cc(-c2ccccc2)[nH]n1` [Compound 3a, 3-(2-methoxyphenyl)-5-phenyl-1H-pyrazole], in series [1], the “HssRS activation (in words)” value is reported as “removes HssRS activity”. For the same compound, the negative-log IC50 (pIC50) in [2] (setting [10]) was less than 4.22; in series [3], 4.68; in series [4], 4.60. Also, the “toxicity to fermenting / anaerobic S. aureus (in words)” value in series [3] is reported as “maintaining toxicity”. In addition, the “preadaptation to heme toxicity” value in series [5] (pretreatment 40 μM compound) was “indistinguishable from vehicle”.
`Oc1ccccc1-c1cc(-c2cccs2)[nH]n1` [Compound 2a, 2-(5-(thiophen-2-yl)-1H-pyrazol-3-yl)phenol] gave an Efficacy in series [1] of 17.0 ± 2.9%. Further, the negative logarithm of the IC50 (pIC50) in series [2] (setting [10]), in series [3] and in [4] was less than 4.22 each time. This compound also gave a solubility in series [6] of roughly 80 µM (≈ 19.4 µg/mL).
Consider `Oc1ccccc1-c1cc(-c2ccncc2)[nH]n1` [Compound 2i], for which the pIC50 in series [2] (setting [10]), in series [3] and in series [4] was less than 4.22 throughout. For the same compound, the “preadaptation to heme toxicity” value in [5] (pretreatment 40 μM compound) was “indistinguishable from vehicle”.
`Oc1ccccc1-c1cc(-c2ccccc2F)[nH]n1` [Compound 2e]: in series [1], the “HssRS activation in single point screen” value is given as “comparable to 1a in activity”, the negative-log EC50 (pEC50) was 4.97, the EC50 was 10.7 µM and the drop in efficacy is roughly 70%. The compound also gave an Efficacy in series [1] of 35.7 ± 10.1%. Further, the negative-log IC50 (pIC50) in series [2] (setting [10]) is less than 4.22. Besides, in series [3], the pIC50 was less than 4.22 and the “toxicity to fermenting / anaerobic S. aureus (in words)” value was “eliminates this toxicity; also recorded: not bacteriostatic under the conditions tested here; also recorded: removes toxicity”. Further, the negative-log IC50 (pIC50) in series [4] is less than 4.22. The “anaerobic toxicity (previously reported)” value in series [7] was “anaerobic toxicity”. For the same compound, in [8], the “efficacy in mouse model of S. aureus infection” value was “efficacy in a mouse model of S. aureus infection”.
Regarding `CCCCCc1cc(-c2ccccc2O)n[nH]1` [Compound 2o, 2-(5-pentyl-1H-pyrazol-3-yl)phenol], the results for the negative-log IC50 (pIC50) in series [2] (setting [10]), in [3] and in series [4] were 4.31, 4.94 and 4.88, respectively. The “toxicity to fermenting / anaerobic S. aureus (in words)” value in series [3] is “comparably toxic to 1”. Moreover, the “preadaptation to heme toxicity” value in series [5] (pretreatment 40 μM compound) is given as “indistinguishable from vehicle”.
For `Oc1ccccc1-c1cc(-c2ccccc2)[nH]n1` [Compound 2c, 2-(5-phenyl-1H-pyrazol-3-yl)phenol], in series [1], the “HssRS activation in single point screen” value is given as “restore activity comparable to 1”, the negative logarithm of the EC50 (pEC50) is 4.84, the EC50 is 21.9 µM and the Efficacy came out at 87.8 ± 23.7%. In addition, the “HssRS activation (in words)” value in series [1] is “maintains HssRS activity”. For the same compound, the pIC50 in series [2] (Staphylococcus aureus, NEWMAN, 9 h of growth, aerobic, read-out: IC50 Newman aerobic) is less than 4.22. Moreover, in series [3], the negative logarithm of the IC50 (pIC50) was 4.62 and the “toxicity to fermenting / anaerobic S. aureus (in words)” value is given as “anaerobic toxicity similar to 1; also recorded: restores toxicity comparable to 1”. In addition, in series [4], the pIC50 is 4.60.
As for `O=C(Nc1ccccc1-c1cc(-c2ccco2)[nH]n1)c1cc(Cl)cc(Cl)c1` [Compound 1i, 3,5-dichloro-N-(2-(5-(furan-2-yl)-1H-pyrazol-3-yl)phenyl)benzamide], the negative logarithm of the IC50 (pIC50) in series [2] (setting [10]) was less than 4.22; in [3] it was 4.71; in [4] it was 5.06. The “preadaptation to heme toxicity” value in [5] (pretreatment 40 μM compound) is reported as “indistinguishable from vehicle”.
With `Oc1c(-c2cc(-c3ccco3)[nH]n2)ccc2ccccc12` [Compound 1], in series [1], the pEC50 was 4.94, the EC50 was 12.6 µM and the Efficacy is 100%. For the same compound, in series [2] (setting [10]), the negative-log IC50 (pIC50) is less than 4.22. In series [3], the pIC50 is 4.87 and the “toxicity to fermenting / anaerobic S. aureus (in words)” value is recorded as “intermediate between the two”. The pIC50 in [4] was 5.78. Also, in series [7], the “anaerobic toxicity (previously reported)” value is “toxic to S. aureus growing anaerobically”.
The compound `Oc1ccccc1-c1cc(-c2ccccc2O)[nH]n1` [Compound 2d, 2,2′-(1H-pyrazole-3,5-diyl)diphenol] gave a pEC50 in series [1] of 5.24. For the same compound, the EC50 in [1] is 5.75 µM. Further, the pIC50 in series [2] (setting [10]) was 4.37; in series [2] (read-out: IC50 Newman aerobic, 9 h of growth, aerobic), 4.37; in [3], 4.80; in [4], 5.03. For the same compound, the “toxicity to fermenting / anaerobic S. aureus (in words)” value in series [3] is “anaerobic toxicity similar to 1; also recorded: exhibits both activities”. Further, the “preadaptation to heme toxicity” value in [5] (pretreatment 20 μM compound) is “excellent preadaptation to heme toxicity”.
Turning to `Oc1ccc(-c2cc(-c3ccco3)[nH]n2)cc1` [Compound 1f], in [1], the “HssRS activation in single point screen” value is “loss of HssRS activation compared to 1 and 1a”. The pIC50 in series [2] (setting [10]), in series [3] and in series [4] was less than 4.22 throughout.
Regarding `Oc1cccc(-c2cc(-c3ccco3)[nH]n2)c1` [Compound 1e, 3-(5-(furan-2-yl)-1H-pyrazol-3-yl)phenol], the “HssRS activation in single point screen” value in series [1] was “loss of HssRS activation compared to 1 and 1a”. For the same compound, the negative-log IC50 (pIC50) in series [2] (setting [10]), in series [3] and in [4] was less than 4.22 throughout.
For the compound `NCC(=O)CCC(=O)O` [ALA, reference compound], in series [9], the “accumulation of PBG” value was “results in accumulation of PBG”.
In the case of `Oc1ccccc1-c1cc(-c2cc(F)ccc2F)[nH]n1` [Compound 2f, 2-(5-(2,5-difluorophenyl)-1H-pyrazol-3-yl)phenol], in series [1], the “HssRS activation in single point screen” value was “comparable to 1a in activity”, the pEC50 was 4.87, the EC50 was 12.6 µM and the drop in efficacy is listed as roughly 70%. The compound further yielded an Efficacy in series [1] of 30.1 ± 8.0%. The pIC50 in series [2] (setting [10]) was less than 4.22. Moreover, in series [3], the negative logarithm of the IC50 (pIC50) is less than 4.22 and the “toxicity to fermenting / anaerobic S. aureus (in words)” value is reported as “eliminates this toxicity”. For the same compound, in [4], the pIC50 is less than 4.22.
